Consider seven compounds from patent US7321027B2, “Small technetium-99m and rhenium labeled agents and methods for imaging tumors” (President and Fellows of Harvard College, priority 2000, dated 2008).

Data set [1] in a line: Determination of lipophilicity and pKa values by HPLC. It is filed as physicochemical. Conditions: HPLC method. As to the method:
The physicochemical parameters of the rhenium complexes, i.e. lipophilicity log P, log D(pH 7.4), and pKa (Table 2) were determined using HPLC methods (Braumann, T.; Grimme, L. H. Determination of Hydrophobic Parameters for Pyridazinone Herbicides by Liquid-Liquid Partition and Reversed-Phase High-Performance Liquid Chromatography. J. Chromatogr. 1981, 206, 7-15; Stytli, C.; Theobald, A. E. Determination of Ionization Constants of Radiopharmaceuticals in Mixed Solvents by HPLC. Appl. Radiat. Isot., 1987, 38, 701-708; Johannsen, B.; Scheunemann, M.; Spies, H.; Brust, P.; Wober, J.; Syhre, R.; Pietzsch, H.-J. Technetium(V) and Rhenium(V) Complexes for 5-HT2A Serotonin Receptor Binding: Structure-Affinity Considerations. Nucl. Med. Biol., 1996, 23, 429-438; and Johannsen, B.; Berger, R.; Brust, P.; Pietzsch, H.-J; Scheunemann, M.; Seifert, S.; Spies, H.; Syhre, R. Structural Modification of Receptor-Binding Technetium-99m Complexes in Order to Improve Brain Uptake. Eur. J. Nucl. Med. 1997, 24, 316-319). […] Since log D(pH 7.4) is a composite measure of log P and pKa, the log D(PH 7.4) of Re-Compound B (1.9) is also higher than that of Re-Compound A (1.1). […] With pKa values >9 for complexes Re-Compound C and Re-Compound D, the resulting low log D(PH 7.4) values of −0.5 (Re-Compound C) and 0.7 (Re-Compound D) are not surprising, since the complexes would exist in a protonated form at pH 7.4.
Determination of Lipophilicity and pKa Values. The lipophilicity and pKa values of all complexes were determined using HPLC methods described previously (Stylli, C.; Theobald, A. E. Determination of Ionization Constants of 4 Radiopharmaceuticals in Mixed Solvents by HPLC. Appl. Radiat. Isot., 1987, 38, 701-708; Johannsen, B.; Scheunemann, M.; Spies, H.; Brust, P.; Wober, J.; Syhre, R.; Pietzsch, H.-J. Technetium(V) and Rhenium(V) Complexes for 5-HT2A Serotonin Receptor Binding: Structure-Affinity Considerations. Nucl. Med. Biol., 1996, 23, 429-438; and Johannsen, B.; Berger, R.; Brust, P.; Pietzsch, H.-J.; Scheunemann, M.; Seifert, S.; Spies, H.; Syhre, R. Structural Modification of Receptor-Binding Technetium-99m Complexes in Order to Improve Brain Uptake. Eur. J. Nucl. Med. 1997, 24, 316-319). […] The mobile phase was acetonitrile:phosphate buffer (0.01 M), 3:1, v/v, with the aqueous buffer adjusted to the desired pH between 3 and 11. The capacity factor (k′) was calculated for each determination (Braumann, T.; Grimme, L. H. Determination of Hydrophobic Parameters for Pyridazinone Herbicides by Liquid-Liquid Partition and Reversed-Phase High-Performance Liquid Chromatography. J. Chromatogr. 1981, 206, 7-15; El Tayer, N.; van der Waterbeemd, H.; Testa, B. Lipophilicity Measurements of Protonated Basic Compounds by Reversed-Phase High-Performance Liquid Chromatography. II. Procedure for the Determination of a Lipophilic Index Measured by Reversed-Phase High Performance Liquid Chromatography. J. Chromatogr. 1985, 320, 305-312; and Minick, D. J.; Frenz, J. H.; Patrick, M. A.; Brent, D. A. A Comprehensive Method for Determining Hydrophobicity Constants by Reversed-Phase High-Performance Liquid Chromatography. J. Med. Chem., 1988, 31, 1923-1933) and the partition coefficient at a given pH (D or log D) were calculated from the equation: log D=a log k′+b where the parameters a and b are predetermined using standard amines. The fitted points of inflection from the sigmoidal DHPLC/pH profiles permit calculation of the pKHPLC(Stylli, C.; Theobald, A. E. Determination of Ionization Constants of Radiopharmaceuticals in Mixed Solvents by HPLC. Appl. Radiat. Isot., 1987, 38, 701-708). The aqueous ionization constants pKa were calculated from the pKHPLC values after correction with a predetermined correction factor obtained using standard amine compounds. Log P values of the neutral complexes were estimated from the respective upper plateau of the sigmoidal log D/pH curve in the alkaline range.

Data set [2] has as its system B16/F0 cells. The data set is described as follows: Tumor-cell uptake in the presence of DTG. Conditions: read-out: DTG concentration at 50% maximal inhibition of complex uptake; intact B16/F0 cells, 37° C., DTG as the inhibitor. Type of data set: cell-based, murine. The source says:
J. Labelled Compd. Radiopharm. 1994, 35, 242-244; Vilner, B. J.; John, C. S.; Bowen, W. D. Sigma-I and Sigma-2 Receptors Are Expressed in a Wide Variety of Human and Rodent Tumor Cell Lines. Cancer Res. 1995, 55, 408-413; and John, C. S.; Vilner, B. J.; Gulden, M. E.; Efange, S. M. N.; Langason, R. B.; Moody, T. W.; Bowen, W. D. Synthesis and Pharmacological Characterization of 4-[^125I]-N-(N-Benzylpiperidin-4-yl)-4-iodobenzamide: A High Affinity σ Receptor Ligand for Potential Imaging of Breast Cancer. […] Pre-incubation of the tumor cells with DTG (90 μM), 30 min prior to the uptake experiments with the ^99mTc-complexes, yields a lower tumor-cell uptake for complexes Tc-(Compound A) (29% less), Tc-(Compound C) (33% less), and Tc-(Compound D) (32% less) at 37° C. (FIG. 4). Additional dose-response experiments conducted with intact B16/F0 cells at 37° C. with Tc-(Compound C) and DTG as the inhibitor (FIG. 3) show a DTG concentration-dependent decrease in the uptake of the complex.
The effect of the inhibitor DTG on cell uptake of these complexes was studied by addition of the inhibitor at various concentrations to the cell suspension 30 min prior to addition of the ^99mTc-complexes. Fresh DTG stock solutions were made by dissolving DTG (3.0 mg, 12.5 μmol) in 0.38 mL PBS and 0.12 mL hydrochloric acid (0.1 N) and subjecting the mixture to ultrasound until a clear solution was obtained, followed by the addition of 0.50 mL FBS to produce a neutral solution at pH 7.4. The stock solutions were diluted by an appropriate amount of S-MEM, and aliquots between 5 μL and 25 μL were added to the cell suspension such that the final concentration of DTG was between 0.02 μM and 120 μM in a total cell suspension volume of 350 μL.

In data set [3] the test system is B16/F0 murine melanoma cells. The data set is described as follows: In-vitro tumor-cell uptake, melanoma cells. It is filed as cell-based. Here is the method:
In-Vitro Tumor-Uptake Studies. Tumor-cell uptake studies in B16/F0 murine melanoma cells were performed with complexes Tc-(Compound A-D and H-M) at 37° C. and 4° C. Additionally, tumor-cell uptake of complex Tc-(Compound A) was investigated in another rapidly dividing MCF-7 human breast cancer cell line.
In-Vitro Cell Studies. Murine B16/F0 melanoma cells and human MCF-7 breast cancer cells were obtained from American Type Culture Collection, Manassas Va., (ATCC) and were grown in T-175 flasks in 14 mL Dulbecco's Modified Eagle Medium (D-MEM; Gibco, Life Technology, Gaithersburg, Md.) containing 4500 mg/L D-glucose, L-glutamine, and pyridoxine hydrochloride, 110 mg/L sodium pyruvate, 10% fetal bovine serum (FBS), 0.2% gentamicin and 0.5% penicillin-streptomycin solution. All cells were harvested from cell culture flasks by trypsinization with 1 mL trypsin-EDTA solution (0.25% trypsin, 1 mM EDTA×4 Na) (Gibco). After being washed with 12 mL Dulbecco's Phosphate-Buffered Saline (PBS) (Gibco), pH 7.2 (Ca^2+- and Mg^2+-free; g/L KCl, 0.20; KH2PO4, 0.20; NaCl, 8.00; Na2HPO4, 1.15), the cells were counted and resuspended in 8 mL S-MEM (Gibco) (Ca^2+ free, with reduced Mg^2+ content) and stored at 4° C. until use.
For in-vitro tumor-cell accumulation studies, 5×10^6 cells in polypropylene test tubes were incubated at 37° C. or 4° C., with intermittent agitation with 1-2 μCi (5 μL) ^99mTc-complex Tc-(Compound A-D) in a total volume of 350 μL S-MEM. At appropriate time intervals the tubes were vortexed and 8-μL samples were layered on 350 μL cold FBS in a 400-μL Eppendorf microcentrifuge tube. After centrifugation at 15,000 rpm for 2 min, the tubes were frozen in a dry ice-acetone bath. While still frozen, the bottom tip of the microcentrifuge tube containing the cell pellet was cut and placed in a counting tube. The remaining portion of the tube with the supernatant was placed in a separate counting tube. Both fractions were counted for radioactivity in a γ-counter (WALLAC, 1480 WIZARD 3″™). The amount of supernatant in the cell pellet was determined to be <1% in separate experiments. The percentage cell uptake of the ^99mTc-complex was calculated as: % uptake=[cpm(pellet)]/[cpm(pellet)+cpm(supernatant)]×100

The test system of data set [4] is B16/F0 murine melanoma. The data set is described as follows: In-vivo tumor uptake and biodistribution. Details: species or system C57B16 mice. As to conditions: mouse, in vivo. Here is the method: In-Vivo Tumor Uptake. To study the tumor uptake of ^99mTc-complexes, Tc-(Compound A-D and J-K), in vivo, biodistribution experiments at 1 h and 6 h after their administration were carried out in C57B16 mice with palpable B16 melanoma nodules. The biodistribution data including melanoma/nontumor (M/NT) ratios for selected organs are summarized in Table 4 and 5 as percentage injected dose per gram ([…]).
Animal Studies. All animal experiments were performed in compliance with the Principles of Laboratory Animal Care (NIH publication #85-23, revised 1985). Biodistribution studies and tumor-uptake measurements were performed in C57B16 mice (15 to 20 g) bearing the B16/F0 murine melanoma on the hind limb. See for example the studies described in, which are hereby incorporated by reference, Brandau, W.; Niehoff, T.; Pulawski, P.; Jonas, M.; Dutschka, K.; Sciuk, J.; Coenen, H. H.; Schober, O. Structure Distribution Relationship of Iodine-123-Iodobenzamides as Tracers for the Detection of Melanotic Melanoma. J. Nucl. Med. 1996, 37, 1865-1871; Mohanmmed, A.; Nicholl, C.; Titsch, U.; Eisenhut, M. Radiojodinated N-(Alkylaminoalkyl)-Substituted 4-Methoxy-, 4-Hydroxy-, and 4-Aminobenzamides: Biological Investigations for the Improvement of Melanoma-Imaging Agents. Nucl. Med. Biol. 1997, 24, 373-380; Titsch, U.; Mohammed, A.; Wagner, S.; Oberdorfer, F.; Eisenhut, M. Syntheses of N-(2-Diethylaminoethyl)benzamides Suitable for ^99mTc Complexation. J. Labelled Compd. Radiopharm. 1997, 40, 416-418; Dittmann, H.; Coenen, H. H.; Zölzer, F.; Dutschka, K.; Brandau, W.; Streffer, C. In Vitro Studies on the Cellular Uptake of Melanoma Imaging Aminoalkyl-iodobenzamide Derivatives (ABA). Nucl. Med. Biol. 1999, 26, 51-56; and Michelot, J. M.; Moreau, M. F. C.; Veyre, A. J.; Bonafous, J. F.; Bacin, F. J.; Madelmont, J. C.; Bussiere, F.; Souteyrand, P. A.; Mauclaire, L. P.; Chossat, F. M.; Papon, J. M.; Labarre, P. G.; Kauffmann, Ph.; Plagne, R. J. Phase II Scintigraphic Clinical Trial of Malignant Melanoma and Metastases with Iodine-123-N-(2-Diethylaminoethyl 4-Iodobenzamide). J. Nucl. Med. 1993, 34, 1260-1266. The tumor cells (B16/F0), obtained from ATCC, were washed with PBS and transplanted subcutaneously on the left hind flank by an inoculation of 0.5×10^6 cells (0.1 mL). Ten to 14 days later the animals developed palpable tumor nodules 3 to 5 mm in diameter. The biodistribution studies were carried out by tail-vein injection of 25 to 30 μCi (0.05 to 0.1 mL) of the ^99mTc-labeled complexes Tc-(Compound A-D, H, J, K or M). At the designated time after tail-vein administration, the animals were weighed and sacrificed. The organs and tumors were harvested and, when appropriate, blotted dry, weighed, and counted in a gamma counter along with technetium-99m standards of the injected dose. The results are expressed as % ID/g tissue (Table 4 and 5)

For the compound `CCCCN(CCCC)CCCN1CC[S][Re]2(=[O])[S]CC[N]2C(=O)C1` (stereo not shown) [Re-Compound D, [ReOAADT]-C3—NBu2], the “log D(pH 7.4)” value in data set [1] was 0.7.
For `CCCCN(CCCC)CCN1CC[S][Re]2(=[O])[S]CC[N]2C(=O)C1` (stereo not shown) [Re-Compound B, [ReOAADT]-C2—NBu2], in data set [1], the “log P” value came to 3.3, the pKa was 7.7 and the “log D(pH 7.4)” value is recorded as 1.9.
Regarding `CCN(CC)CCN1CC[S][Tc]2(=[O])[S]CC[N]2C(=O)C1` (stereo not shown) [Tc-(Compound A)], the IC50 in data set [2] worked out at 21 µM.
Consider `CCCCN(CCCC)CCCN1CC[S][Tc]2(=[O])[S]CC[N]2C(=O)C1` (stereo not shown) [Tc-(Compound D)], for which, in data set [2], the IC50 was found to be 52 µM.
Turning to `CCN(CC)CCN1CC[S][Re]2(=[O])[S]CC[N]2C(=O)C1` (stereo not shown) [Re-Compound A, [ReOAADT]-C2—NEt2], in data set [1], the lipophilicity (log P) came to 1.6, the pKa is on record as 7.7 and the “log D(pH 7.4)” value stood at 1.1.
`CCN(CC)CCCN1CC[S][Tc]2(=[O])[S]CC[N]2C(=O)C1` (stereo not shown) [Tc-(Compound C)]: the IC50 in data set [2] was determined as 49 µM.
As to `CCCCN(CCCC)CCCN(CCSC(c1ccccc1)(c1ccccc1)c1ccccc1)CC(=O)NCCSC(c1ccccc1)(c1ccccc1)c1ccccc1` [Compound D, N-[(3-dibutylaminopropyl)-N-(2-(2-(S-(triphenylmethyl)thio)ethyl)amino)-acetyl]-S-(triphenylmethyl)-2-aminoethanethiol], the “% Tumor uptake (In-vitro, 60 min) 4° C.” value in data set [3] (60 min, 4° C.) is on record as 56 ± 2.7%. The “% Tumor uptake (In-vitro, 60 min) 37° C.” value in data set [3] (60 min, 37° C.) turned out to be 68 ± 2.3%. In addition, the “% active” value in data set [3] (active part of in-vitro uptake, 37° C. vs 4° C.) is listed as 18%. In data set [4], the “In-vivo M/Blood” value worked out at 4.3, the “In-vivo M/Lung” value turned out to be 1.5 and the “In-vivo M/Spleen” value was 1.4.

A word on the log P: it is the decadic logarithm of the partition coefficient of the neutral form, usually between octanol and water. Higher therefore signals higher lipophilicity. For orientation: pKa means the negative logarithm of the acid dissociation constant.
